These results are taken from PubChem BioAssay (NCI).

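Tested at 5 concentrations; 48 h exposure; 96-well plates; endpoints linearly interpolated, else capped at highest concentration. GI50 marks 50% less growth. At the TGI there is no net growth.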 Where a SMILES comes first, the peptide text is derived from it. [ ]: non-standard residue; d: D form. The star is where a group is joined. Palmitoyl = CCCCCCCCCCCCCCCC(=O)*; Cbz = O=C(OCc1ccccc1)*; Aib = CC(C)(N)C(=O)O; OBn = c1ccc(CO*)cc1

Among the test systems are CAKI-1 renal; LOX IMVI melanoma; HCC-2998 colon; SNB-19 CNS; SK-MEL-5 melanoma; UACC-257 melanoma; MALME-3M melanoma; HT29 colon; K-562 leukemia; SR leukemia.
Common to all, as to test: NCI tumour cell line growth inhibition, 48 h

On to `CN1CC[C@]2(c3cccc(O)c3)CC(=O)/C(=C/c3ccccc3)[C@@H]1C2`, for which the TGI was 6.04 µM in the assay on CAKI-1 renal; 4.71 µM in the assay on LOX IMVI melanoma; 7.16 µM in the assay on HCC-2998 colon; 18.2 µM with SNB-19 CNS; 14.7 µM in the assay on SK-MEL-5 melanoma; 11.7 µM with UACC-257 melanoma. Further, the TGI was 10.4 µM with MALME-3M melanoma, 7.55 µM in the assay on HT29 colon, 4.01 µM in the assay on K-562 leukemia and 8.68 µM in the assay on SR leukemia.
With `CC(NC(=O)C(C)(C)NC(=O)C(CC(=O)OCc1ccccc1)NC(=O)OCc1ccccc1)C(N)=O` (stereo not given) (Cbz-Asp(OBn)-[Aib]-Ala-NH2; configuration not given here), the TGI in the assay on CAKI-1 renal, in the assay on LOX IMVI melanoma, in the assay with HCC-2998 colon, in the assay with SNB-19 CNS, in the assay with SK-MEL-5 melanoma and with UACC-257 melanoma was more than 100 µM in each case. Besides, the TGI in the assay with MALME-3M melanoma, in the assay with HT29 colon, with K-562 leukemia and in the assay with SR leukemia was more than 100 µM throughout.
Regarding `O=C1/C(=C/c2ccc(Cl)cc2)CCCc2ccccc21`, the TGI with CAKI-1 renal is more than 100 µM; in the assay with LOX IMVI melanoma it was 31 µM; in the assay on HCC-2998 colon it was 36.7 µM; with SNB-19 CNS, 43.6 µM; with UACC-257 melanoma, 77.7 µM; with MALME-3M melanoma, 27.5 µM. Moreover, the TGI in the assay on HT29 colon came to 19.7 µM; with K-562 leukemia, 12 µM; in the assay on SR leukemia, 37 µM.
Turning to `CCOC(=O)c1c2cccccc-2nc1Nc1cccc2c(C)ccnc12`, the TGI in the assay with CAKI-1 renal, in the assay on LOX IMVI melanoma, in the assay on HCC-2998 colon, with SNB-19 CNS, with SK-MEL-5 melanoma and in the assay on UACC-257 melanoma was more than 10 µM throughout. Further, the TGI in the assay on MALME-3M melanoma, in the assay with HT29 colon, in the assay with K-562 leukemia and in the assay on SR leukemia was more than 10 µM throughout.
Consider `CCc1n[nH]c(=O)n1-c1ccc2ccccc2c1`, for which the TGI with CAKI-1 renal, with LOX IMVI melanoma, in the assay on HCC-2998 colon, in the assay with SNB-19 CNS, in the assay with SK-MEL-5 melanoma and in the assay on UACC-257 melanoma was more than 100 µM throughout. Besides, the TGI in the assay on MALME-3M melanoma, in the assay on HT29 colon, with K-562 leukemia and in the assay with SR leukemia was more than 100 µM throughout.
As to `CCCCCCCCCCCCCCCC(=O)N1CCCC1C(=O)NCC(=O)NC(Cc1ccccc1)C(=O)N1CCCC1C(=O)NC(CO)C(=O)NC(Cc1ccc(O)cc1)C(=O)NC(CCCCN)C(=O)NC(CC(C)C)C(=O)NC(CCCN=C(N)N)C(=O)N1CCCC1C(=O)NCC(N)=O` (stereo not given) (Palmitoyl-PGFPSYKLRPG-NH2; configuration not given here), the GI50 is 20.9 µM in the assay with CAKI-1 renal; 10.4 µM in the assay with HCC-2998 colon; 25.7 µM in the assay with SNB-19 CNS; 28.7 µM in the assay with SK-MEL-5 melanoma; 14.6 µM in the assay on UACC-257 melanoma; 0.45 µM in the assay on MALME-3M melanoma. In addition, the GI50 in the assay with HT29 colon is 15.8 µM; with K-562 leukemia it was 14.3 µM; with SR leukemia, 16.5 µM. The TGI with CAKI-1 renal is 50.6 µM; with HCC-2998 colon, 24.1 µM; with SNB-19 CNS it was 55.5 µM; in the assay with SK-MEL-5 melanoma it was more than 100 µM; with UACC-257 melanoma it was 31 µM; in the assay on MALME-3M melanoma it was 5.73 µM. Moreover, the results for the TGI with HT29 colon, in the assay on K-562 leukemia and in the assay on SR leukemia were 29.3 µM, 38.5 µM and 44.9 µM, respectively.
As to `Clc1sc(Cl)c2c1[C@@H](Cl)C[C@@H]2Br`, the TGI in the assay with CAKI-1 renal, with LOX IMVI melanoma, in the assay on HCC-2998 colon, in the assay on SNB-19 CNS, in the assay with SK-MEL-5 melanoma and in the assay with UACC-257 melanoma was more than 100 µM in each case. Besides, the TGI was more than 100 µM in the assay on MALME-3M melanoma, more than 100 µM in the assay on HT29 colon, more than 100 µM in the assay with K-562 leukemia and 48.3 µM with SR leukemia.
Take `CCOC(=O)/C(C(C)=O)=C(\OC(C)=O)c1ccncc1C(=O)O`: the TGI in the assay on CAKI-1 renal, with LOX IMVI melanoma, in the assay on HCC-2998 colon, in the assay on SNB-19 CNS, in the assay on UACC-257 melanoma and in the assay on MALME-3M melanoma was more than 100 µM throughout. Also, the TGI with HT29 colon, in the assay on K-562 leukemia and in the assay with SR leukemia was more than 100 µM throughout.
As to `CO/N=C(/C(=O)OC)c1ccccc1COc1ccccc1C(F)(F)F`, the TGI with CAKI-1 renal was more than 100 µM; in the assay with HCC-2998 colon, more than 100 µM; in the assay with SNB-19 CNS, more than 100 µM; in the assay on SK-MEL-5 melanoma it was 25.8 µM; with UACC-257 melanoma it was 88.7 µM; with MALME-3M melanoma, 47.2 µM. The TGI is more than 100 µM in the assay on HT29 colon, more than 100 µM in the assay on K-562 leukemia and 79.2 µM in the assay on SR leukemia.
For `C=CCn1c(=O)ccn(/C(=C/C(=O)OCC)C(=O)OCC)c1=O`, the TGI was 4.19 µM in the assay with CAKI-1 renal; 18.1 µM in the assay on LOX IMVI melanoma; 31.8 µM in the assay with HCC-2998 colon; more than 58.3 µM in the assay on SNB-19 CNS; 29.1 µM with SK-MEL-5 melanoma; 28.7 µM with UACC-257 melanoma. The TGI in the assay on MALME-3M melanoma turned out to be 25.4 µM; in the assay on HT29 colon, 27.9 µM; in the assay on K-562 leukemia it was 12.5 µM; with SR leukemia, 23.2 µM.
As for `CC(C)N1CCN(c2ccc(OCC3COC(Cn4cncn4)(c4ccc(Cl)cc4Cl)O3)cc2)CC1` (stereo not given), the TGI with CAKI-1 renal was 40.3 µM; with LOX IMVI melanoma, 30.2 µM; in the assay on HCC-2998 colon it was 21.1 µM; in the assay with SNB-19 CNS, more than 57.4 µM; in the assay on SK-MEL-5 melanoma, 4.92 µM; with UACC-257 melanoma, 3.77 µM. In addition, the TGI in the assay with MALME-3M melanoma turned out to be 22.2 µM; in the assay with HT29 colon, 13.4 µM; in the assay on K-562 leukemia, 19.8 µM; in the assay with SR leukemia, 12.1 µM.
Turning to `CCN(CC)c1ccc(/C=C/c2ccnc3ccccc23)cc1`, the TGI with CAKI-1 renal, in the assay with LOX IMVI melanoma, with HCC-2998 colon, in the assay on SNB-19 CNS, in the assay on SK-MEL-5 melanoma and with UACC-257 melanoma was more than 100 µM throughout. The TGI with MALME-3M melanoma, with HT29 colon, in the assay with K-562 leukemia and in the assay with SR leukemia was more than 100 µM in each case.
